# Results from patent US4272437A, “Antibacterial agents, and 4-thio azetidinone intermediates” (priority 1979, dated 1981).
# Where two headings read alike, the source gives them in different places.
# Legend:
# Proteus rettgeri A21203 = test: MIC, tube dilution, Proteus rettgeri A21203; type: cell-based; details: overnight 37° C.; for MIC: Providencia rettgeri, A21203, Proteus rettgeri A21203, read-out: Minimum Inhibitory Concentration (M.I.C.)
# Text: (§1) Representative compounds of the present invention were subjected to in vitro antibiotic screening against a variety of microorganisms.
# [1] = system: Staph. aureus (Pen-Res) A-9606; test: MIC, tube dilution, Staphylococcus aureus A9606 (Pen-Res); type: cell-based; details: Staph. aureus A9606 (Pen-Res), overnight 37° C.; for MIC: Staphylococcus aureus, read-out: Minimum Inhibitory Concentration (M.I.C.)
# Text: as §1
# Str. pneumoniae A-9585 = test: MIC, tube dilution, Streptococcus pneumoniae A9585; type: cell-based; details: overnight 37° C., Nutrient Broth; for MIC: Streptococcus pneumoniae, A9585, Str. pneumoniae A9585, read-out: Minimum Inhibitory Concentration (M.I.C.)
# Text: as §1
# Staph. aureus A-9537 = test: MIC, tube dilution, Staphylococcus aureus A9537; type: cell-based; details: overnight 37° C., Nutrient Broth; for MIC: Staphylococcus aureus, A9537, Staph. aureus A9537, read-out: Minimum Inhibitory Concentration (M.I.C.)
# Text: as §1
# [2] = system: Staph. aureus (Meth-Res) A-15097; test: MIC, tube dilution, Staphylococcus aureus A15097 (Meth-Res); type: cell-based; details: overnight 37° C.; for MIC: Staphylococcus aureus
# Text: as §1
# S. aureus A9537 = test: In vivo protection of mice, lethal infection with S. aureus A9537; details: IM, 2 treatments; for ED50: Staphylococcus aureus, A9537, im, read-out: PD50
# Protocol: Representative compounds of the present invention were also tested in vivo in mice and their PD50 (dose of compound in mg/kg required to protect 50% of the treated mice against an otherwise lethal infection of a micro-organism) values determined with respect to the test organisms shown below.
# Proteus vulgaris A21559 = test: MIC, tube dilution, Proteus vulgaris A21559; type: cell-based; details: overnight 37° C.; for MIC: Proteus vulgaris, A21559, Proteus vulgaris A21559, read-out: Minimum Inhibitory Concentration (M.I.C.)
# Text: as §1
# Pr. mirabilis A-9900 = test: MIC, tube dilution, Proteus mirabilis A9900; type: cell-based; details: overnight 37° C.; for MIC: Proteus mirabilis, A9900, Proteus mirabilis A9900, read-out: Minimum Inhibitory Concentration (M.I.C.); for Minimum Inhibitory Concentration (M.I.C.): Proteus mirabilis A9900
# Text: as §1
# Ps. aeruginosa A-21213 = test: MIC, tube dilution, Pseudomonas aeruginosa A21213; type: cell-based; details: overnight 37° C.; for MIC: read-out: Minimum Inhibitory Concentration (M.I.C.)
# Text: as §1
# Ps. aeruginosa A-9843A = test: MIC, tube dilution, Pseudomonas aeruginosa A9843A; type: cell-based; details: overnight 37° C.; for Minimum Inhibitory Concentration (M.I.C.): Pseudomonas aeruginosa A9843A; for MIC: Pseudomonas aeruginosa, A9843A, read-out: Minimum Inhibitory Concentration (M.I.C.), Pseudomonas aeruginosa A9843A
# Text: as §1
# Ser. marcescens A-20019 = test: MIC, tube dilution, Serratia marcescens A20019; type: cell-based; details: overnight 37° C.; for MIC: Serratia marcescens, A20019, Serratia marcescens A20019, read-out: Minimum Inhibitory Concentration (M.I.C.)
# Text: as §1
# Str. pyogenes A-9604 = test: MIC, tube dilution, Streptococcus pyogenes A9604; type: cell-based; details: overnight 37° C., Nutrient Broth; for MIC: Streptococcus pyogenes, A9604, Str. pyogenes A9604, read-out: Minimum Inhibitory Concentration (M.I.C.)
# Text: as §1
# Pr. morganii A-15153 = test: MIC, tube dilution, Proteus morganii A15153; type: cell-based; details: overnight 37° C.; for MIC: Morganella morganii, A15153, Proteus morganii A15153, read-out: Minimum Inhibitory Concentration (M.I.C.); for Minimum Inhibitory Concentration (M.I.C.): Proteus morganii A15153
# Text: as §1
# Str. faecalis A-20688 = test: MIC, tube dilution, Streptococcus faecalis A20688; type: cell-based; details: overnight 37° C.; for MIC: Enterococcus faecalis, A20688, Str. faecalis A20688, read-out: Minimum Inhibitory Concentration (M.I.C.)
# Text: as §1
# [3] = Mouse blood levels after intramuscular administration; type: in vivo; details: average of 6 mice, read-out: Mouse blood level; for concentration at 10 min: 10 minutes after IM 40 mg/kg; for concentration at 20 min: 20 minutes after IM 40 mg/kg; for concentration at 0.5 h: 30 minutes after IM 40 mg/kg; for concentration at 0.75 h: 45 minutes after IM 40 mg/kg
# Protocol: Mouse blood levels after intramuscular administration of representative compounds of the present invention were determined and are reported in the table below.
# K. pneumoniae A-15130 = test: MIC, tube dilution, Klebsiella pneumoniae A15130; type: cell-based; details: overnight 37° C.; for Minimum Inhibitory Concentration (M.I.C.): K. pneumoniae A15130; for MIC: Klebsiella pneumoniae, A15130, K. pneumoniae A15130, read-out: Minimum Inhibitory Concentration (M.I.C.)
# Text: as §1
# Ent. cloacae A-9656 = test: MIC, tube dilution, Enterobacter cloacae A9656; type: cell-based; details: overnight 37° C.; for Minimum Inhibitory Concentration (M.I.C.): Enterobacter cloacae A9656; for MIC: Enterobacter cloacae, A9656, Enterobacter cloacae A9656, read-out: Minimum Inhibitory Concentration (M.I.C.)
# Text: as §1
# Ent. cloacae A-9659 = test: MIC, tube dilution, Enterobacter cloacae A9659; type: cell-based; details: overnight 37° C.; for Minimum Inhibitory Concentration (M.I.C.): Enterobacter cloacae A9659; for MIC: Enterobacter cloacae, A9659, Enterobacter cloacae A9659, read-out: Minimum Inhibitory Concentration (M.I.C.)
# Text: as §1
# E. coli A-20341-1 = test: MIC, tube dilution, Escherichia coli A20341-1; type: cell-based; details: overnight 37° C.; for MIC: Escherichia coli, A203411, E. coli A20341-1, read-out: Minimum Inhibitory Concentration (M.I.C.)
# Text: as §1
# [4] = system: Klebsiella species A20468; test: MIC, tube dilution, Klebsiella species A20468; type: cell-based; details: Klebsiella species (K. pneumoniae) A20468, overnight 37° C.; for MIC: read-out: Minimum Inhibitory Concentration (M.I.C.)
# Text: as §1
# E. coli A-15119 = test: MIC, tube dilution, Escherichia coli A15119; type: cell-based; details: overnight 37° C.; for Minimum Inhibitory Concentration (M.I.C.): E. coli A15119; for MIC: Escherichia coli, A15119, E. coli A15119, read-out: Minimum Inhibitory Concentration (M.I.C.)
# Text: as §1
# [5] = system: Staph. aureus A-9537 and 50% serum; test: MIC, tube dilution, Staph. aureus A9537 + 50% serum; type: cell-based, Staphylococcus aureus; details: overnight 37° C.; for MIC: Staphylococcus aureus, read-out: Minimum Inhibitory Concentration (M.I.C.)
# Text: as §1
# [6] = Staph. aureus A15097 (Meth-Res)
# [7] = Pseudomonas aeruginosa, A21213, Pseudomonas aeruginosa A21213
Compound,MIC (Proteus rettgeri A21203) [mg/L],MIC [1] [mg/L],MIC (Str. pneumoniae A-9585) [mg/L],MIC (Staph. aureus A-9537) [mg/L],"Minimum Inhibitory Concentration (M.I.C.) [2, 6] [µg/mL]",MIC (Proteus vulgaris A21559) [mg/L],MIC (Pr. mirabilis A-9900) [mg/L],MIC (Ser. marcescens A-20019) [mg/L],MIC (Str. pyogenes A-9604) [mg/L],MIC (Pr. morganii A-15153) [mg/L],MIC (Str. faecalis A-20688) [mg/L],Minimum Inhibitory Concentration (M.I.C.) (Ent. cloacae A-9659) [µg/mL],MIC (E. coli A-20341-1) [mg/L],MIC [4] [mg/L],MIC [5] [mg/L],MIC (Ps. aeruginosa A-9843A) [mg/L],MIC (K. pneumoniae A-15130) [mg/L],MIC (Ent. cloacae A-9656) [mg/L],MIC (Ent. cloacae A-9659) [mg/L],MIC (E. coli A-15119) [mg/L],other results
"NCCCCCC1=C(C(=O)O)N2C(=O)C[C@H]2S1 [Example 87, 2-(5-Aminopentyl)-penem-3-carboxylic acid]",4,4,0.008,0.016,32,16,4,2,0.008,4,8,16,16,> 125,0.13,,,,,,ED50 (S. aureus A9537; 1 × 10^6 organisms): 0.12 mg/kg; MIC (Ps. aeruginosa A-21213; [7]): > 125 mg/L; Minimum Inhibitory Concentration (M.I.C.) (Ps. aeruginosa A-9843A): 32 µg/mL; concentration at 10 min [3]: 50.3 µg/mL; concentration at 20 min [3]: 47.3 µg/mL; concentration at 0.5 h [3]: 34.6 µg/mL; concentration at 0.75 h [3]: 23.3 µg/mL; Minimum Inhibitory Concentration (M.I.C.) (K. pneumoniae A-15130): 8 µg/mL; Minimum Inhibitory Concentration (M.I.C.) (Ent. cloacae A-9656): 8 µg/mL; Minimum Inhibitory Concentration (M.I.C.) (E. coli A-15119): 4 µg/mL
"NC1CCC(C2=C(C(=O)O)N3C(=O)C[C@H]3S2)C1 (single isomer, unassigned) [98 isomer B, 2-(3-Aminocyclopentyl)-penem-3-carboxylic acid]",,,,,> 63,,,,,,,8,,,,,,,,,"Minimum Inhibitory Concentration (M.I.C.) (Proteus rettgeri A21203; Proteus rettgeri A21203): 1 µg/mL; Minimum Inhibitory Concentration (M.I.C.) [1]: > 63 µg/mL; Minimum Inhibitory Concentration (M.I.C.) (Str. pneumoniae A-9585; Str. pneumoniae A9585): .008 µg/mL; Minimum Inhibitory Concentration (M.I.C.) (Staph. aureus A-9537; Staph. aureus A9537): .03 µg/mL; PD50 (S. aureus A9537; 9.1 × 10^5 organisms, listed as Ex. 98 (isomer B)): 0.12 mg/kg/treatment; Minimum Inhibitory Concentration (M.I.C.) (Proteus vulgaris A21559; Proteus vulgaris A21559): 8 µg/mL; Minimum Inhibitory Concentration (M.I.C.) (Pr. mirabilis A-9900): 1 µg/mL; Minimum Inhibitory Concentration (M.I.C.) (Ps. aeruginosa A-21213; Pseudomonas aeruginosa A21213): > 63 µg/mL; Minimum Inhibitory Concentration (M.I.C.) (Ps. aeruginosa A-9843A): 63 µg/mL; Minimum Inhibitory Concentration (M.I.C.) (Ser. marcescens A-20019; Serratia marcescens A20019): 2 µg/mL; Minimum Inhibitory Concentration (M.I.C.) (Str. pyogenes A-9604; Str. pyogenes A9604): .008 µg/mL; Minimum Inhibitory Concentration (M.I.C.) (Pr. morganii A-15153): 4 µg/mL; Minimum Inhibitory Concentration (M.I.C.) (Str. faecalis A-20688; Str. faecalis A20688): 8 µg/mL; Minimum Inhibitory Concentration (M.I.C.) (K. pneumoniae A-15130): 4 µg/mL; Minimum Inhibitory Concentration (M.I.C.) (Ent. cloacae A-9656): 2 µg/mL; Minimum Inhibitory Concentration (M.I.C.) (E. coli A-20341-1; E. coli A20341-1): 16 µg/mL; Minimum Inhibitory Concentration (M.I.C.) [4]: > 63 µg/mL; Minimum Inhibitory Concentration (M.I.C.) (E. coli A-15119): 1 µg/mL; Minimum Inhibitory Concentration (M.I.C.) [5]: .25 µg/mL"
"C[C@@H](O)[C@H]1C(=O)N2C(C(=O)O)=C([C@H]3C[C@H](N)C3)S[C@H]12 (relative stereo) [Example 65, (1""R,5R,6S and 1'S,5S,6R)-2-(trans-3'-Amino-1'-cyclobutyl)-6-(1""-hydroxy-1""-ethyl)penem-3-carboxylic Acid (isomer B)]",< 0.25,0.06,0.004,0.008,,< 0.25,< 0.25,0.5,0.004,1,0.5,2,< 0.25,0.5,0.06,16,< 0.25,0.5,4,0.13,ED50 (S. aureus A9537; 7.8 × 10^5 organisms): 0.12 mg/kg; Minimum Inhibitory Concentration (M.I.C.) (Ps. aeruginosa A-21213; Pseudomonas aeruginosa A21213): 63 µg/mL; MIC (Ps. aeruginosa A-21213; [7]): 125 mg/L; concentration at 10 min [3]: 44.7 µg/mL; concentration at 20 min [3]: 34.4 µg/mL; concentration at 0.5 h [3]: 23.7 µg/mL; concentration at 0.75 h [3]: 17.6 µg/mL; concentration at 1 h ([3]; 60 minutes after IM 40 mg/kg): 9.8 µg/mL; concentration at 1.5 h ([3]; 90 minutes after IM 40 mg/kg): 3.6 µg/mL; concentration at 2 h ([3]; 120 minutes after IM 40 mg/kg): 1 µg/mL
"O=C(O)C1=C(CCC[N+](=O)[O-])SC2CC(=O)N12 (centres unmarked) [Example 91, 2-(3'-Nitropropyl)-penem-3-carboxylic Acid]",2,32,0.25,0.25,,8,1,4,0.25,4,63,,63,> 125,16,125,16,2,4,1,"MIC ([2]; read-out: Minimum Inhibitory Concentration (M.I.C.), Staph. aureus A15097 (Meth-Res)): > 125 mg/L; ED50 (S. aureus A9537; 9.1 × 10^5 organisms): 9.6 mg/kg; MIC (Ps. aeruginosa A-21213; Pseudomonas aeruginosa A21213): 125 mg/L"
"CC1=C(C(=O)O)N2C(=O)[C@H]([C@@H](C)O)[C@H]2S1 (relative stereo) [Example 60, (1'R,5R,6S and 1'S,5S,6R) 6-(1'-Hydroxy-1'-ethyl)-2-methylpenem-3-carboxylic Acid (isomer B)]",16,4,0.25,2,,16,32,16,1,32,63,,16,16,8,> 125,16,16,32,16,"MIC ([2]; Staph. aureus A15097 (Meth-Res), read-out: Minimum Inhibitory Concentration (M.I.C.)): 8 mg/L; ED50 (S. aureus A9537; 6.6 × 10^5 organisms): 7.7 mg/kg; Minimum Inhibitory Concentration (M.I.C.) (Pr. mirabilis A-9900): 16 µg/mL; MIC (Ps. aeruginosa A-21213; Pseudomonas aeruginosa A21213): > 125 mg/L; Minimum Inhibitory Concentration (M.I.C.) (Pr. morganii A-15153): 16 µg/mL"
